Test results reported in patent publication US10100058B2, “Fused heterocyclic compounds as CaM kinase inhibitors” (Gilead Sciences, Inc., priority 2016, dated 2018).

Biological target: recombinant CaMKIIδ (Homo sapiens (Human), UniProt Q13557)
Test: CaMKIIδ biochemical assay (HTRF)
Details: 10 pM CaMKIIδ, 110 nM calmodulin, 12 μM ATP, 1 hour; read-out: CAMKIID-HTRF-384V2 (IC50 - nM)
Procedure: CaMKIIδ Biochemical Assay
The biochemical activity of recombinant CaMKIIδ was measured by monitoring the phosphorylation of a target peptide using Homogenous Time Resolved Fluorescence (HTRF) technology from CisBio Bioassays.

| IC50 | Structure (SMILES) |
| --- | --- |
| 0.13 nM | CCN(CC)[C@@H](C)CNC(=O)c1cc(-c2cnn3ccc(-c4ccsc4)nc23)nc(N2CC(OC)C2)c1 [Example 165, (S)—N-(2-(diethylamino)propyl)-2-(3-methoxyazetidin-1-yl)-6-(5-(thiophen-3-yl)pyrazolo[1,5-a]pyrimidin-3-yl)isonicotinamide] |
| 26 nM | CCN(CC)[C@@H](C)CNC(=O)c1cc(-c2cnn3ccc(-c4cncnc4)nc23)nc(N2CC(OC)C2)c1 [Example 166, (S)—N-(2-(diethylamino)propyl)-2-(3-methoxyazetidin-1-yl)-6-(5-(pyrimidin-5-yl)pyrazolo[1,5-a]pyrimidin-3-yl)isonicotinamide] |
| 0.16 nM | CCN(CC)[C@@H](C)CNC(=O)c1cc(-c2cnn3ccc(-c4cccs4)nc23)nc(N2CCCS2(=O)=O)c1 [Example 167, (S)—N-(2-(diethylamino)propyl)-2-(1,1-dioxidoisothiazolidin-2-yl)-6-(5-(thiophen-2-yl)pyrazolo[1,5-a]pyrimidin-3-yl)isonicotinamide] |
| 18.1 nM | C[C@H](N)CNC(=O)c1cc(-c2cnn3ccc(-c4cccs4)nc23)nc(N2CC(O)C2)c1 [Example 168, (S)—N-(2-aminopropyl)-2-(3-hydroxyazetidin-1-yl)-6-(5-(thiophen-2-yl)pyrazolo[1,5-a]pyrimidin-3-yl)isonicotinamide] |
| 9.11 nM | CCN[C@@H](C)CNC(=O)c1cc(-c2cnn3ccc(-c4cccs4)nc23)nc(N2CC(O)C2)c1 [Example 169, (S)—N-(2-(ethylamino)propyl)-2-(3-hydroxyazetidin-1-yl)-6-(5-(thiophen-2-yl)pyrazolo[1,5-a]pyrimidin-3-yl)isonicotinamide] |
| 19.9 nM | COC1CN(c2cc(C(=O)NCC3(N)CCC3)cc(-c3cnn4ccc(-c5cccs5)nc34)n2)C1 [Example 170, N-((1-aminocyclobutyl)methyl)-2-(3-methoxyazetidin-1-yl)-6-(5-(thiophen-2-yl)pyrazolo[1,5-a]pyrimidin-3-yl)isonicotinamide] |
| 18.8 nM | COC1CN(c2cc(C(=O)NC[C@H](C)N)cc(-c3cnn4ccc(-c5cccs5)nc34)n2)C1 [Example 171, (S)—N-(2-aminopropyl)-2-(3-methoxyazetidin-1-yl)-6-(5-(thiophen-2-yl)pyrazolo[1,5-a]pyrimidin-3-yl)isonicotinamide] |
| 85.3 nM | COC1CN(c2cc(C(=O)NC[C@H](C)N)cc(-c3cnn4ccc(-c5ccccc5)nc34)n2)C1 [Example 172, (S)—N-(2-aminopropyl)-2-(3-methoxyazetidin-1-yl)-6-(5-phenylpyrazolo[1,5-a]pyrimidin-3-yl)isonicotinamide] |
| 13 nM | CCN[C@@H](C)CNC(=O)c1cc(-c2cnn3ccc(-c4cccs4)nc23)nc(N2CC(OC)C2)c1 [Example 173, (S)—N-(2-(ethylamino)propyl)-2-(3-methoxyazetidin-1-yl)-6-(5-(thiophen-2-yl)pyrazolo[1,5-a]pyrimidin-3-yl)isonicotinamide] |
| 35.2 nM | CCN[C@@H](C)CNC(=O)c1cc(-c2cnn3ccc(-c4ccccc4)nc23)nc(N2CC(OC)C2)c1 [Example 174, (S)—N-(2-(ethylamino)propyl)-2-(3-methoxyazetidin-1-yl)-6-(5-phenylpyrazolo[1,5-a]pyrimidin-3-yl)isonicotinamide] |
| 0.29 nM | CCN(CC)[C@@H](C)CNC(=O)c1cc(-c2cnn3ccc(-c4ccns4)nc23)nc(N2CC(OC)C2)c1 [Example 176, (S)—N-(2-(diethylamino)propyl)-2-(5-(isothiazol-5-yl)pyrazolo[1,5-a]pyrimidin-3-yl)-6-(3-methoxyazetidin-1-yl)isonicotinamide] |
| 0.8 nM | CCN(CC)[C@@H](C)CNC(=O)c1cc(-c2cnn3ccc(-c4cccs4)nc23)nc(N(C)S(C)(=O)=O)c1 [Example 177, (S)—N-(2-(diethylamino)propyl)-2-((N-methylmethyl)sulfonamido)-6-(5-(thiophen-2-yl)pyrazolo[1,5-a]pyrimidin-3-yl)isonicotinamide] |
| 1.25 nM | CCN(CC)[C@@H](C)CNC(=O)c1cc(NS(=O)(=O)C(C)C)nc(-c2cnn3ccc(-c4cccs4)nc23)c1 [Example 178, (S)—N-(2-(diethylamino)propyl)-2-((1-methylethyl)sulfonamido)-6-(5-(thiophen-2-yl)pyrazolo[1,5-a]pyrimidin-3-yl)isonicotinamide] |
| 0.72 nM | CCN(CC)[C@@H](C)CNC(=O)c1cc(NS(=O)(=O)CC)nc(-c2cnn3ccc(-c4cccs4)nc23)c1 [Example 179, (S)—N-(2-(diethylamino)propyl)-2-(ethylsulfonamido)-6-(5-(thiophen-2-yl)pyrazolo[1,5-a]pyrimidin-3-yl)isonicotinamide] |
| 0.47 nM | CCN(CC)[C@@H](C)CNC(=O)c1cc(NS(=O)(=O)C2CC2)nc(-c2cnn3ccc(-c4cccs4)nc23)c1 [Example 180, (S)-2-(cyclopropanesulfonamido)-N-(2-(diethylamino)propyl)-6-(5-(thiophen-2-yl)pyrazolo[1,5-a]pyrimidin-3-yl)isonicotinamide] |
| 0.64 nM | CCN(CC)[C@@H](C)CNC(=O)c1cc(NS(C)(=O)=O)nc(-c2cnn3ccc(-c4cccs4)nc23)c1 [Example 181, (S)—N-(2-(diethylamino)propyl)-2-(methylsulfonamido)-6-(5-(thiophen-2-yl)pyrazolo[1,5-a]pyrimidin-3-yl)isonicotinamide] |
| 0.16 nM | CCN(CC)[C@@H](C)CNC(=O)c1cc(-c2cnn3ccc(-c4cccs4)nc23)nc(N2CC(NS(=O)(=O)CC)C2)c1 [Example 182, (S)—N-(2-(diethylamino)propyl)-2-(3-(ethylsulfonamido)azetidin-1-yl)-6-(5-(thiophen-2-yl)pyrazolo[1,5-a]pyrimidin-3-yl)isonicotinamide] |
| 0.26 nM | CCN(CC)[C@@H](C)CNC(=O)c1cc(-c2cnn3ccc(-c4cccs4)nc23)nc(N2CC(NS(=O)(=O)C(C)C)C2)c1 [Example 183, (S)—N-(2-(diethylamino)propyl)-2-(3-((1-methylethyl)sulfonamido)azetidin-1-yl)-6-(5-(thiophen-2-yl)pyrazolo[1,5-a]pyrimidin-3-yl)isonicotinamide] |
| 1.16 nM | CCN(CC)[C@@H](C)CNC(=O)c1cc(-c2cnn3ccc(-c4cccs4)nc23)nc(N2CCNC2=O)c1 [Example 184, (S)—N-(2-(diethylamino)propyl)-2-(2-oxoimidazolidin-1-yl)-6-(5-(thiophen-2-yl)pyrazolo[1,5-a]pyrimidin-3-yl)isonicotinamide] |
| 0.11 nM | CCNC(=O)Nc1cc(C(=O)NC[C@H](C)N(CC)CC)cc(-c2cnn3ccc(-c4cccs4)nc23)n1 [Example 185, (S)—N-(2-(diethylamino)propyl)-2-(3-ethylureido)-6-(5-(thiophen-2-yl)pyrazolo[1,5-a]pyrimidin-3-yl)isonicotinamide] |
| 0.23 nM | CCOC(=O)Nc1cc(C(=O)NC[C@H](C)N(CC)CC)cc(-c2cnn3ccc(-c4cccs4)nc23)n1 [Example 186, (S)-ethyl (4-((2-(diethylamino)propyl)carbamoyl)-6-(5-(thiophen-2-yl)pyrazolo[1,5-a]pyrimidin-3-yl)pyridin-2-yl)carbamate] |
| 0.27 nM | CCN(CC)[C@@H](C)CNC(=O)c1cc(NC(=O)OC(C)C)nc(-c2cnn3ccc(-c4cccs4)nc23)c1 [Example 187, (S)-isopropyl (4-((2-(diethylamino)propyl)carbamoyl)-6-(5-(thiophen-2-yl)pyrazolo[1,5-a]pyrimidin-3-yl)pyridin-2-yl)carbamate] |
| 0.43 nM | CCC(=O)Nc1cc(C(=O)NC[C@H](C)N(CC)CC)cc(-c2cnn3ccc(-c4cccs4)nc23)n1 [Example 188, (S)—N-(2-(diethylamino)propyl)-2-propionamido-6-(5-(thiophen-2-yl)pyrazolo[1,5-a]pyrimidin-3-yl)isonicotinamide] |
| 0.45 nM | CCN(CC)[C@@H](C)CNC(=O)c1cc(NC(=O)C(C)C)nc(-c2cnn3ccc(-c4cccs4)nc23)c1 [Example 189, (S)—N-(2-(diethylamino)propyl)-2-isobutyramido-6-(5-(thiophen-2-yl)pyrazolo[1,5-a]pyrimidin-3-yl)isonicotinamide] |
| 0.16 nM | CCN(CC)[C@@H](C)CNC(=O)c1cc(NC(=O)C2CC2)nc(-c2cnn3ccc(-c4cccs4)nc23)c1 [Example 190, (S)-2-(cyclopropanecarboxamido)-N-(2-(diethylamino)propyl)-6-(5-(thiophen-2-yl)pyrazolo[1,5-a]pyrimidin-3-yl)isonicotinamide] |
| 0.2 nM | CCN(CC)[C@@H](C)CNC(=O)c1cc(NCC2(C)COC2)nc(-c2cnn3ccc(-c4cccs4)nc23)c1 [Example 191, (S)—N-(2-(diethylamino)propyl)-2-(((3-methyloxetan-3-yl)methyl)amino)-6-(5-(thiophen-2-yl)pyrazolo[1,5-a]pyrimidin-3-yl)isonicotinamide] |
| 141 nM | CCN(CC)[C@@H](C)CNC(=O)c1cc(NCC2COC2)nc(-c2cnn3ccc(-c4cccs4)nc23)c1 [Example 192, (S)—N-(2-(diethylamino)propyl)-2-((oxetan-3-ylmethyl)amino)-6-(5-(thiophen-2-yl)pyrazolo[1,5-a]pyrimidin-3-yl)isonicotinamide] |
| 83.2 nM | CCN(CC)[C@@H](C)CNC(=O)c1cc(NC2COC2)nc(-c2cnn3ccc(-c4cccs4)nc23)c1 [Example 193, (S)—N-(2-(diethylamino)propyl)-2-(oxetan-3-ylamino)-6-(5-(thiophen-2-yl)pyrazolo[1,5-a]pyrimidin-3-yl)isonicotinamide] |
| 0.19 nM | CCN(CC)[C@@H](C)CNC(=O)c1cc(-c2cnn3ccc(-c4cccs4)nc23)nc(N2CC(NC(=O)c3ncco3)C2)c1 [Example 194, (S)—N-(1-(4-((2-(diethylamino)propyl)carbamoyl)-6-(5-(thiophen-2-yl)pyrazolo[1,5-a]pyrimidin-3-yl)pyridin-2-yl)azetidin-3-yl)oxazole-2-carboxamide] |
